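Five compound concentrations were applied to cells in 96-well plates for 48 hours; endpoints were derived by simple linear interpolation of the resulting dose-response curve. GI50 = concentration required for 50% inhibition of growth.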 Active and inactive are the calls of the source. Cut-off read from the data, not from the text of the source: active = GI50 up to about 1.1 µM and inactive = higher.
Columns and labels:
Test in all cases: growth of human tumour cells (NCI), 48 h
[1] = test system: MOLT-4
[2] = test system: OVCAR-3
[3] = test system: MCF7
[4] = test system: UACC-257
[5] = test system: HL-60
[6] = test system: NCI-H460
[7] = test system: SK-MEL-2
[8] = test system: A498
[9] = test system: DU-145
[10] = test system: CCRF-CEM
[11] = test system: CAKI-1
[12] = test system: BT-549
[13] = test system: UO-31
[14] = test system: HCT-15
[15] = test system: OVCAR-5
[16] = test system: K562
[17] = test system: IGROV-1
[18] = test system: KM12
[19] = test system: PC-3
[20] = test system: TK-10
[21] = test system: NCI-H226
[22] = test system: SK-MEL-28
[23] = test system: HOP-62
[24] = test system: SW-620
[25] = test system: SK-MEL-5
[26] = test system: SNB-19
[27] = test system: SR
[28] = test system: M14
[29] = test system: 786-0
[30] = test system: RXF 393
[31] = test system: MDA-MB-231
[32] = test system: SNB-75
[33] = test system: HT-29
[34] = test system: U-251
[35] = test system: NCI-H23
[36] = test system: HCT-116
[37] = test system: Malme-3M
[38] = test system: ACHN
[39] = test system: SF-268
[40] = test system: Hs-578T
[41] = test system: OVCAR-4
[42] = test system: A549
[43] = test system: SF-295
[44] = test system: NCI-H522
[45] = test system: LOX IMVI
[46] = test system: OVCAR-8
[47] = test system: MDA-N
[48] = test system: UACC-62
[49] = test system: HCC 2998
[50] = test system: NCI/ADR-RES
[51] = test system: COLO 205
[52] = test system: RPMI-8226
[53] = test system: MDA-MB-435
[54] = test system: EKVX
[55] = test system: SK-OV-3
[56] = test system: T47D
[57] = test system: SF-539
[58] = test system: HOP-92
[59] = test system: SN12C

Measured: GI50

CCN1C/C(=C\c2ccc(Cl)cc2)c2nc(N)c(C#N)c(-c3ccc(Cl)cc3)c2C1
> 100 µM: [14]
inactive: [1] 67.9 µM | [2] > 100 µM | [3] > 100 µM | [4] > 100 µM | [5] > 100 µM | [6] > 100 µM | [7] > 100 µM | [8] > 100 µM | [9] > 100 µM | [10] > 100 µM | [11] > 100 µM | [12] > 100 µM | [13] > 100 µM | [15] > 100 µM | [16] > 100 µM | [17] > 100 µM | [18] > 100 µM | [19] > 100 µM | [20] > 100 µM | [21] > 100 µM | [22] > 100 µM | [23] > 100 µM | [24] > 100 µM | [25] > 100 µM | [26] > 100 µM | [27] 27.1 µM | [28] > 100 µM | [29] > 100 µM | [30] > 100 µM | [31] > 100 µM | [32] 60.3 µM | [33] > 100 µM | [34] > 100 µM | [35] > 100 µM | [36] > 100 µM | [37] > 100 µM | [38] > 100 µM | [39] > 100 µM | [40] > 100 µM | [41] > 100 µM | [42] > 100 µM | [43] > 100 µM | [44] > 100 µM | [45] > 100 µM | [46] > 100 µM | [47] > 100 µM | [48] > 100 µM | [49] > 100 µM | [50] > 100 µM | [51] > 100 µM | [52] > 100 µM | [53] > 100 µM | [54] > 100 µM | [55] > 100 µM

CC(=O)c1c(O)ccc2c1c1c(n2C)C(=O)c2ccccc2C1=O
inactive: [1] 4.42 µM | [2] 1.81 µM | [3] 1.69 µM | [4] > 100 µM | [5] > 100 µM | [6] 3.21 µM | [7] > 100 µM | [8] 2.84 µM | [9] 3.21 µM | [10] 3.69 µM | [11] 5.24 µM | [12] > 100 µM | [15] > 100 µM | [16] > 100 µM | [17] 1.82 µM | [20] 3.47 µM | [22] 2.99 µM | [23] 6.53 µM | [25] 3.29 µM | [26] 7.28 µM | [27] 2.25 µM | [56] 1.45 µM | [29] 4.9 µM | [30] 3.84 µM | [31] 2.52 µM | [32] 2.32 µM | [33] > 100 µM | [34] 4.63 µM | [36] 3.01 µM | [39] 1.86 µM | [40] 2.82 µM | [42] 5.66 µM | [43] 6.92 µM | [45] 3.24 µM | [46] 5.3 µM | [51] > 100 µM | [52] 1.46 µM | [54] 3.24 µM | [57] 3.08 µM | [55] 2.84 µM
> 100 µM: [14]
active: [37] 0.0128 µM | [49] 0.0114 µM

CC(=O)O[C@H]1CC[C@H]2[C@@H]3CCC(C(C)=O)[C@H](C(=O)O)[C@H]3CC[C@]12C (stereo not given in full)
> 100 µM: [14]
inactive: [1] > 100 µM | [2] > 100 µM | [3] > 100 µM | [4] > 100 µM | [5] > 100 µM | [6] > 100 µM | [7] > 100 µM | [8] > 100 µM | [10] > 100 µM | [11] > 100 µM | [12] > 100 µM | [13] > 100 µM | [15] > 100 µM | [16] > 100 µM | [17] > 100 µM | [18] > 100 µM | [19] > 100 µM | [20] > 100 µM | [22] > 100 µM | [23] > 100 µM | [24] > 100 µM | [25] > 100 µM | [26] > 100 µM | [27] > 100 µM | [28] > 100 µM | [30] > 100 µM | [31] > 100 µM | [33] > 100 µM | [34] > 100 µM | [35] > 100 µM | [37] > 100 µM | [39] > 100 µM | [58] > 100 µM | [40] > 100 µM | [41] > 100 µM | [42] > 100 µM | [43] > 100 µM | [44] > 100 µM | [46] > 100 µM | [48] > 100 µM | [49] > 100 µM | [50] > 100 µM | [51] > 100 µM | [52] > 100 µM | [53] > 100 µM | [54] > 100 µM | [57] > 100 µM | [55] > 100 µM

OC[C@H]1O[C@@H](Oc2cc(O)cc(/C=C/c3ccc(O)cc3)c2)[C@H](O)[C@@H](O)[C@@H]1O [PICEID]
inactive: [1] > 100 µM | [2] > 100 µM | [3] > 100 µM | [4] > 100 µM | [5] > 100 µM | [6] > 100 µM | [7] > 100 µM | [8] > 100 µM | [9] > 100 µM | [10] > 100 µM | [11] > 100 µM | [12] > 100 µM | [13] > 100 µM | [15] > 100 µM | [16] > 100 µM | [17] > 100 µM | [18] > 100 µM | [19] > 100 µM | [20] > 100 µM | [21] > 100 µM | [22] > 100 µM | [59] > 100 µM | [23] > 100 µM | [24] > 100 µM | [25] > 100 µM | [26] > 100 µM | [27] > 100 µM | [29] > 100 µM | [30] > 100 µM | [31] > 100 µM | [32] > 100 µM | [33] > 100 µM | [34] > 100 µM | [36] > 100 µM | [38] > 100 µM | [58] > 100 µM | [40] > 100 µM | [41] > 100 µM | [42] > 100 µM | [43] > 100 µM | [44] > 100 µM | [45] > 100 µM | [46] > 100 µM | [47] > 100 µM | [48] > 100 µM | [50] > 100 µM | [52] > 100 µM | [53] > 100 µM | [54] > 100 µM | [57] > 100 µM | [55] > 100 µM
> 100 µM: [14]

COC(=O)CCC(NC(=O)OC(C)(C)C)C(=O)NC(Cc1ccc(NC(=O)CCCC(C)=O)cc1)C(=O)NC(CCC(=O)OC)C(=O)OC (stereo not given)
inactive: [1] > 100 µM | [2] > 100 µM | [3] > 100 µM | [4] > 100 µM | [6] > 100 µM | [7] > 100 µM | [8] > 100 µM | [9] > 100 µM | [10] > 100 µM | [11] > 100 µM | [13] > 100 µM | [15] > 100 µM | [16] > 100 µM | [17] > 100 µM | [18] > 100 µM | [19] > 100 µM | [20] > 100 µM | [21] > 100 µM | [22] > 100 µM | [59] > 100 µM | [23] > 100 µM | [24] > 100 µM | [25] > 100 µM | [26] > 100 µM | [27] > 100 µM | [56] > 100 µM | [28] > 100 µM | [29] > 100 µM | [30] > 100 µM | [31] > 100 µM | [32] > 100 µM | [33] > 100 µM | [35] > 100 µM | [36] > 100 µM | [37] > 100 µM | [38] > 100 µM | [39] > 100 µM | [58] > 100 µM | [40] > 100 µM | [41] > 100 µM | [42] > 100 µM | [43] > 100 µM | [44] > 100 µM | [45] > 100 µM | [46] > 100 µM | [47] > 100 µM | [48] > 100 µM | [49] > 100 µM | [50] > 100 µM | [51] > 100 µM | [52] > 100 µM | [53] > 100 µM | [54] > 100 µM | [57] > 100 µM | [55] > 100 µM
> 100 µM: [14]
